Results: paper PMC9380671, “Development of spiro-3-indolin-2-one containing compounds of antiproliferative and anti-SARS-CoV-2 properties” (Scientific Reports, 2022)

Assays:
[1] = MTT cytotoxicity assay (CC50); assay type: cell-based; conditions: African green monkey, VERO-E6 cells
Summary of the method: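 VERO-E6 cells seeded at 3 x 10^5 cell/ml, grown 24 h at 37 °C, then exposed to compounds in triplicate for 24 h. Viability by MTT (4 h, 37 °C), formazan in acidified isopropanol read at 570 nm; CC50 by nonlinear regression versus untreated cells.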

[2] = tested on: MCF7 (breast cancer cell line); test: PI-flow cytometry cell cycle studies; assay type: cell-based, human; conditions: MCF7, PI-FC, compound at its MTT IC50
Procedure: Flow cytometry (FC) is a reliable technique for evaluation of cancer cell progression[72]–[74]. Illumination of the cells by lasers can identify the stained propidium iodide (PI) DNA cell content in stoichiometric population value. This is a commonly accessible methodology for studying cancer cell antiproliferation and cell cycle phase suppression.
(§1) Cell cycle studies for the most promising agents synthesized (6l and 6m) against MCF7 (breast) cancer call were conducted by the standard technique. The Cells were suspended in DMEM medium in addition to 1% antibiotic–antimycotic mixture (10000 μg ml^-1 potassium penicillin, 10000 μg ml^-1 streptomycin sulfate and 25 μg ml^-1 amphotericin B), 10% fetal bovine serum and 1% L-glutamine at 37 °C, under 5% CO2 and 95% humidity. Cells were seeded at concentration of 30000 cells per well in fresh complete growth medium in 96-well tissue culture microtiter plates for 24 h. Media was aspirated, fresh complete medium was added and cells were incubated with the IC50 concentration of the tested compounds which determined previously in the MTT antiproliferation testing assay. The ab139418-Propidium Iodide Flow Cytometry kit for cycle analysis (reader: BD FACS Calibur)^8 was used for cell cycle analysis. The Annexin V-FITC Apoptosis Detection Kit (Catalog#K101-25) was utilized for apoptosis studies.^9 All the studies were conducted according to the manufacturer’s instruction.

BChE = BChE (Homo sapiens, UniProt P06276); test: BChE inhibition (DTNB, butyrylthiocholine iodide)
Sequence of BChE (P06276 29-602, species assumed): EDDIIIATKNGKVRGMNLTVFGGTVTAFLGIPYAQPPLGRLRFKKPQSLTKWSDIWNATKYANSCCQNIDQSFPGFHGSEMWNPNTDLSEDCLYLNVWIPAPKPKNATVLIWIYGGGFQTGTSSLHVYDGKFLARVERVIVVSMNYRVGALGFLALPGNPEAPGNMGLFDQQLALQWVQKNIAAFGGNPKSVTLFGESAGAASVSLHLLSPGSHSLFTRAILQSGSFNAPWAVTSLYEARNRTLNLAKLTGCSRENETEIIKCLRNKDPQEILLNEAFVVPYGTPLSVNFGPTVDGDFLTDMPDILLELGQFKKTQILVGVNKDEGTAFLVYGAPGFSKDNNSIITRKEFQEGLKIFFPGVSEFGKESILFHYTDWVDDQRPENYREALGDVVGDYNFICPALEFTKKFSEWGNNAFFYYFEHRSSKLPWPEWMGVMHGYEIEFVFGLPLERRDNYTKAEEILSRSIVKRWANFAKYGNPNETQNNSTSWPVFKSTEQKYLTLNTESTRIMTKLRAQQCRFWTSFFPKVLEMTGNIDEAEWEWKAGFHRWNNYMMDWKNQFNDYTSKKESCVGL
Procedure: Butyrylthiocholine iodide and acetylthiocholine were utilized as substrates in BChE and AChE assays, respectively, where DTNB was served as indicator. All compounds were dissolved in MeOH. […] Blank assays were performed by replacing the enzyme (20 μL) with buffer and their absorbances were recorded for correction of the spontaneous lysis of the indicator or inherent color of the inhibitor.
% Inhibition = [1−(corrected A/corrected B)] * 100

EGFR = target: T1, EGFR (Homo sapiens, UniProt P00533); assay type: cell-based; conditions: western blot, MCF7, compound at its MTT IC50; for EGFR RQ (relative quantification): control RQ 3.4461
T1 construct: Western blot technique was considered for EGFR and VEGFR-2 properties determination; endogenous in cells; host or cells: MCF7 (breast cancer cell line)
T1 sequence (P00533 25-1210): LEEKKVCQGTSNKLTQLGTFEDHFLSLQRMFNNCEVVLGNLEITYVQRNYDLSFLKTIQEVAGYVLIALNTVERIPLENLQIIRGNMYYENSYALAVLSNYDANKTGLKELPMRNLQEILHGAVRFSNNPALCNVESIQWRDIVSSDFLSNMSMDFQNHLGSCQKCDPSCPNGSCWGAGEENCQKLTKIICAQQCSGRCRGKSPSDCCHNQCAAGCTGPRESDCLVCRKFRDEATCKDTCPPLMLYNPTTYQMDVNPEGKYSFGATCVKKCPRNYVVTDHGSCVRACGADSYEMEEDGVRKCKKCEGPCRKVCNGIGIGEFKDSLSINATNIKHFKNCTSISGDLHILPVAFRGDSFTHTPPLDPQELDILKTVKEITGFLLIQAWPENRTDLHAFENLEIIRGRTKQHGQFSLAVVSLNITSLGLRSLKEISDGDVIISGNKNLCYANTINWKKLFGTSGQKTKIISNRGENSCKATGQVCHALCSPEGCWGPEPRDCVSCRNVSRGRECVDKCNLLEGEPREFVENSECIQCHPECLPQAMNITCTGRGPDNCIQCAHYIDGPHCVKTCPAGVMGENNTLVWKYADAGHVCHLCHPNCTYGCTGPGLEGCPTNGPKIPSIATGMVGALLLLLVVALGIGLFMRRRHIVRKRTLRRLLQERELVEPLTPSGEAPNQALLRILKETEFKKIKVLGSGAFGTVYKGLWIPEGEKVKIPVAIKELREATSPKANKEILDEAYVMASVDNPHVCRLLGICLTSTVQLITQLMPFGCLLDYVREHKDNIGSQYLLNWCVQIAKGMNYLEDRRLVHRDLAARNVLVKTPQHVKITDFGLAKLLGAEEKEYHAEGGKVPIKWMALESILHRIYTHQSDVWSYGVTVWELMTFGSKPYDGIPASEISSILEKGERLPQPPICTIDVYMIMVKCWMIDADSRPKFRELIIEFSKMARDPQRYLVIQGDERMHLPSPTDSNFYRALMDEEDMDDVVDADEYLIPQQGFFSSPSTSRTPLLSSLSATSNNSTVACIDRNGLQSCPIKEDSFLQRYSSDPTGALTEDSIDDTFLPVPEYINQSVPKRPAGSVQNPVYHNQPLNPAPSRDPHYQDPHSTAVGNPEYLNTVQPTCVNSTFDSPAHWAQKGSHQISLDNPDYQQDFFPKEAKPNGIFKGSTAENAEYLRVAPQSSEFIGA
Summary of the method: (§2)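 Western blot of MCF7 breast cancer cells, each agent tested at its own IC50 from the MTT assay on that line, following the manufacturer's instructions.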

VEGFR-2 = target: T2, VEGFR-2 (Homo sapiens, UniProt P35968); assay type: cell-based; conditions: western blot, MCF7, compound at its MTT IC50; for VEGFR-2 RQ (relative quantification): control RQ 3.2634
T2 construct: Western blot technique was considered for EGFR and VEGFR-2 properties determination; endogenous in cells; host or cells: MCF7 (breast cancer cell line)
T2 sequence (P35968 20-1356): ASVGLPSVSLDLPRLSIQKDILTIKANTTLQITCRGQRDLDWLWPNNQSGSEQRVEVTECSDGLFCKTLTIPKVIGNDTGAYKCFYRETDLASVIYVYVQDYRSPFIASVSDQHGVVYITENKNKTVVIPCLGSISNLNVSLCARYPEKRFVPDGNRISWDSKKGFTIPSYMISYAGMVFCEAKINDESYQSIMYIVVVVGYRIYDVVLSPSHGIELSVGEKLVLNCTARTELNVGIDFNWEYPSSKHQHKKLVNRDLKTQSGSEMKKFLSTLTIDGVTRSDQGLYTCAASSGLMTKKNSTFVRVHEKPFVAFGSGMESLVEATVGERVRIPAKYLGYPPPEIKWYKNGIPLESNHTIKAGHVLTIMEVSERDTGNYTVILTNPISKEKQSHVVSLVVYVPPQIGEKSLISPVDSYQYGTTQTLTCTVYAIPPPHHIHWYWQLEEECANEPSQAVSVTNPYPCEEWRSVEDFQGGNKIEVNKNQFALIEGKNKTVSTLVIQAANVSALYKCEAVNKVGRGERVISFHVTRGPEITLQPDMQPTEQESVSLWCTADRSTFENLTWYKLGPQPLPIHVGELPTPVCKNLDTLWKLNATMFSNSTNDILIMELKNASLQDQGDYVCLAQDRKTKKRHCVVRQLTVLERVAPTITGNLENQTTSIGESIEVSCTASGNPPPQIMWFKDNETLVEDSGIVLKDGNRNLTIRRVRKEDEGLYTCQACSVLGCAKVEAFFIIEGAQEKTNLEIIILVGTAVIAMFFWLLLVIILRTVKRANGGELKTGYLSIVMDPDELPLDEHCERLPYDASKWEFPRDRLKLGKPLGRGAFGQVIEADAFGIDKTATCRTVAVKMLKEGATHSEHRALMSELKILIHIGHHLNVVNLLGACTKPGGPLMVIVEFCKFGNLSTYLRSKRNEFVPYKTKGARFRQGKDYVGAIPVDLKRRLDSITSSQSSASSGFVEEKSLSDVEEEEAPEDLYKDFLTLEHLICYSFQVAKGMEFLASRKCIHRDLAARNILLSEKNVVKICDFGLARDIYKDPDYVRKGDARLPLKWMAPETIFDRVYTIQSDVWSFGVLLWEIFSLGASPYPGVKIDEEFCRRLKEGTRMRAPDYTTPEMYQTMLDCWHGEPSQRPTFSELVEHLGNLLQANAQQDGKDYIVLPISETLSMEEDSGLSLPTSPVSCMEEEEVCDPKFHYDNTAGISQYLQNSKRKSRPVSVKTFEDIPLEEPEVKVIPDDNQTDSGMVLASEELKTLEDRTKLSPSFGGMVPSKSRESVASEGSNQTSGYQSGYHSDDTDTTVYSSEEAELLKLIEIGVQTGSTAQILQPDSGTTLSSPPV
Summary of the method: as §2

[3] = tested on: RPE1 (normal human immortalized retinal pigment epithelial cell line); test: MTT toxicity towards normal cells, RPE1; assay type: cell-based; conditions: RPE-1, read-out: IC50 (µM) ± SEM RPE1
[4] = tested on: MCF7 (breast cancer cell line); test: Annexin V-FITC apoptosis/necrosis studies; assay type: cell-based, human; conditions: MCF7, compound at its MTT IC50
Excerpt: It is also notable that both the tested compounds increase the apoptosis of the tested cancer cells. Moreover, the total amount of apoptosis for the tested cell line is higher for compound 6m than that for 6l (total number of apoptosis = 38.41, 42.55 for compounds 6l and 6m, respectively). […] On the other hand, necrosis observed for compound 6m is relatively higher than that of compound 6l (necrosis = 3.01, 3.96 for compounds 6l and 6m, respectively). […] These observations agree with the antiproliferation properties observed through MTT assay (Table 3, Fig. 8).
as §1

Row | Compound | CC50 at 24 h [1] | % DNA content G0–G1 [2] | % DNA content G2/M [2] | % DNA content S [2] | IC50 (BChE) | EGFR % Inhibition (EGFR) | EGFR RQ (relative quantification) (EGFR) | VEGFR-2 % Inhibition (VEGFR-2) | VEGFR-2 RQ (relative quantification) (VEGFR-2) | IC50 [3] | Apoptosis (%) Early [4] | Apoptosis (%) Late [4] | Apoptosis (%) Total [4] | Necrosis [4]
1 | CCS(=O)(=O)N1C/C(=C\c2ccc(Cl)cc2)C(=O)C2(C1)C(c1ccc(Cl)cc1)CN(C)C21C(=O)Nc2ccc(Cl)cc21 (stereo not shown) [Compound 6l, (E)-5-Chloro-5″-(4-chlorobenzylidene)-4′-(4-chlorophenyl)-1″-(ethylsulfonyl)-1′-methyldispiro[indoline-3,2′-pyrrolidine-3′,3″-piperidine]-2,4″-dione] | 476 µM | 66.13% | 10.13% | 23.74% | 11.8 ± 0.95 µM | 65.7% | 1.18 | 60.2% | 1.299 | > 50 µM | 14.39% | 21.01% | 38.41% | 3.01%
2 | CN1CC(c2ccc(Br)cc2)C2(CN(S(C)(=O)=O)C/C(=C\c3ccc(Br)cc3)C2=O)C12C(=O)Nc1ccccc12 (stereo not shown) [Compound 6m, (E)-5″-(4-Bromobenzylidene)-4′-(4-bromophenyl)-1′-methyl-1″-(methylsulfonyl)dispiro[indoline-3,2′-pyrrolidine-3′,3″-piperidine]-2,4″-dione] | 160 µM | 62.51% | 2.38% | 35.11% | 27.9 ± 2.96 µM | 65.6% | 1.1845 | 61.3% | 1.264 | 14.9 ± 1.61 µM | 24.88% | 13.71% | 42.55% | 3.96%
